Assay results taken from article PMC2992995, “Characterization and Online Detection of Surfactin Isomers Based on HPLC-MS^n Analyses and Their Inhibitory Effects on the Overproduction of Nitric Oxide and the Release of TNF-α and IL-6 in LPS-Induced Macrophages” (Marine Drugs, 2010).

Assays:
Type in all cases: cell-based, murine
[1] = test system: NO production induced by LPS in RAW264.7 cells; test: Inhibition of NO production induced by LPS (Griess nitrite assay); conditions: Mus musculus, LPS 1 μg/mL, 24 h, samples 1–30 μM, Griess reagent, means of four experiments
Protocol: (§1) RAW264.7 cells were incubated in RPMI 1640 medium supplemented with penicillin (100 U/mL), streptomycin (100 μg/mL) and 10% heat inactivated fetal bovine serum at 37 °C in a humidified incubator with 5% CO2.
Nitric oxide was determined by measuring the amount of nitrite in the cell culture supernatant, using Griess reagent (mixture of equal volume of reagent A and reagent B, (A): 1% sulphanilamide; (B): 0.1% naphthylethylene diamine dihydrochloride in 10% H3PO4). Hydrocortisone was used as positive control. RAW264.7 cells were treated by lipopolysaccharides (LPS, 1 μg/mL) with or without samples (1–9, 1–30 μM) for 24 h, then briefly centrifuged. 100 μL of the cell culture supernatant were mixed with 100 μL of Griess reagent, followed by incubation for 10 min at room temperature. The absorbance at 540 nm was measured and the inhibitory rates were calculated by using a standard calibration curve prepared from different concentrations of sodium nitrite.

[2] = test system: IL-6 production induced by LPS in RAW264.7 cells; test: Inhibition of IL-6 release induced by LPS (ELISA); conditions: LPS 1 μg/mL, 6 h, samples 1–30 μM, mouse IL-6 ELISA of culture supernatant, means of four experiments
Protocol: as §1
Cells were treated by LPS (1 μg/mL) with or without samples (1–9, 1–30 μM) for 6 h. 100 μL of the culture supernatant was taken out to determine the level of TNF-α and IL-6 using respective enzyme-linked immunosorbent assay kit according to the manufacturer’s recommendations. Hydrocortisone was used as positive control.

[3] = test system: TNF-α production induced by LPS in RAW264.7 cells; test: Inhibition of TNF-α release induced by LPS (ELISA); conditions: LPS 1 μg/mL, 6 h, samples 1–30 μM, mouse TNF-α ELISA of culture supernatant, means of four experiments
Protocol: as §1
[…] 100 μL of the culture supernatant was taken out to determine the level of TNF-α and IL-6 using respective enzyme-linked immunosorbent assay kit according to the manufacturer’s recommendations. Hydrocortisone was used as positive control.

IC50 [1]: 64.3 µM | IC50 [2]: 63.9 µM | IC50 [3]: 85.6 µM
Compound: C[C@]12CCC(=O)C=C1CC[C@@H]1[C@@H]2[C@@H](O)C[C@@]2(C)[C@H]1CC[C@]2(O)C(=O)CO [Hydrocortisone]
